Assay results taken from patent publication US9839614B2, “Nanoparticle and polymer formulations for thyroid hormone analogs, antagonists, and formulations and uses thereof” (NANOPHARMACEUTICALS LLC, priority 2009, dated 2017).
“And” between values parts separate entries of the source, which are not always exact repeats. Identical values can stand only once.

Experiments:
[1] = system: matrigel plug angiogenesis; test: Mouse matrigel model of angiogenesis (plug hemoglobin); type: in vivo, mice (C57BL/6NCr)
Procedure: Normal male mice (C57BL/6NCr) 6-8 weeks of age and weighing ˜20 g were purchased from Taconic farm. Animals were housed 4 per cage, in controlled conditions of temperature (20-24° C.); humidity (60-70%) and 12 hrs. light/dark cycle provided with food and water ad libitum. […] Aliquots of matrigel were placed into cold polypropylene tubes to prevent the matrigel from solidifying and the angiogenesis promoter added to matrigel with or without agonist. Mice were treated daily. Matrigel was subcutaneously injected as triple injection per animal at 100 μL/animal. At day 14 post plug implant all animals were killed in CO2 chamber and matrigel plugs were collected. Plug hemoglobin content was analyzed from three implants/mice (n=6 per group) to measure angiogenesis.
The matrigel plugs dissected from the mice were carefully stripped of any remaining peritoneum. The plugs were placed into 0.5 mL tube of ddH2O and homogenized for 5-10 min. […] Absorbance was read with a Microplate Manager ELISA reader at 540 nm. […] Hemoglobin concentration is a reflection of the number of blood vessels in the plugs.

[2] = system: MDA-MB-231 cells gene expression; test: RNA microarray of MDA-MB-231 cells (Example 16); type: cell-based, human
Procedure: MDA-MB-231 cells were purchased from ATCC (Manassas, Va.). Cells were maintained until use in DMEM that contained 10% FBS. The incubator conditions were 5% CO2/95% 02 and 37° C. The action of unmodified Tetrac and nanoparticulate on MDA-MB-231 cells was determined in a perfusion bellows cell culture system we have recently described for quantitating pharmaceutical agent pharmacodynamics in vitro. (See Lin et al., J Steroid Biochem Mol Biol 113: 182-188 (2009)). In brief, the cell culture system is a disposable bioreactor capable of high density cell culture for studies of anti-cancer drugs. Bellows-induced alternate flow of culture medium and air through porous matrices where cells are grown provides a relatively low shear, high aeration, foam-free culture environment. Medium level is raised and lowered to submerge and expose matrices to create a dynamic interface between air and media on the cell surface. Anchorage-dependent cells are grown on plastic flakes in the system. The flakes facilitate harvesting of whole cells for analysis. In the present studies, 5×10^7 cells were seeded in each perfusion flask and incubated at 37 C overnight. Flakes thereafter were sampled at regular intervals (FIG. 44), subjected to trypsinization and the harvested cells counted. When Tetrac or nanoparticulate Tetrac were initially added to the system, flasks contained 20-50×10^6 cells. Cell cultures were re-fed with 1% FBS-containing medium. Studies were carried out in duplicate flasks and replicated once. • Cell culture for harvesting of RNA. MDA-MB-231 cells were maintained in DMEM that was supplemented with 10% FBS in a 5% CO2/95% 02 air incubator at 37° C. For two days prior to exposure to Tetrac and nanoparticulate Tetrac, cells were maintained in 0.25% FBS that was stripped of estrogen and thyroid hormone. (See Lin et al., Biochemistry 42: 7571-7579 (2003)). • RNA microarray and analysis. Microarray analysis experiments were conducted as described previously. (See Glinsky et al., J Clin Invest 115: 1503-1521 (2005); Glinsky et al., J Clin Invest 113: 913-923 (2004); Glinsky et al., Clin Cancer Res 10: 2272-2283 (2004); and Glinsky et al., Mol Carcinog 37: 209-221 (2003)). […] Sample purity and integrity were verified with an Agilent BioAnalyzer (Santa Clara, Calif.). Expression analysis of 54,675 transcripts for each sample was by Affymetrix HG-U133A Plus 2.0 arrays. MAS5.0 software was used for data retrieval and analysis and concordant changes of gene expression in response to unmodified Tetrac and nanoparticulate Tetrac were defined by two-tailed t test at a threshold p value <0.01. Results • Effects of Tetrac and nanoparticulate Tetrac on MDA-MB-231 cell proliferation. […] Unmodified Tetrac at 10^−6M, introduced at day 0, inhibited cell proliferation by more than 30% by day 9. […] Actions shown here of nanoparticulate Tetrac on these pairs of genes are antithetic to tumor cell survival. […] A third pathway affected by the agents was that of the catenins. (See Takemaru et al., Nature 422: 905-909 (2003)). CBY1 is a potent inhibitor of β-catenin and the Wnt/β-catenin system, which are major survival pathways in cancer cells. CBY1 expression was induced by Tetrac and Tetrac NP.

[3] = system: GL261 murine brain tumor cells; test: GL261 growth curve, cell volumes/areas and colony forming efficiency; type: cell-based
Procedure: 1×10^5 cells per 25 cm^2 flask at time zero (density 40 cells/mm^2). Three flasks were utilized at each time period. The medium in the flasks was not changed over the duration of the growth curve (unfed cultures). Data were taken daily from day zero to day 11.5 post-seeding and cell numbers, age distributions, and apoptotic percentages were determined. After growth curve shapes (without and with 2 μM tetrac) were determined, irradiation times at 70 and 270 hour post-seeding were chosen.
To obtain exponential and plateau phase cell numbers, we trypsinized ([…] trypsin-EDTA) cells for 5 min at 37° C.
For determination of CCDTs, the cell numbers per flask were determined on a daily basis. A four-day interval in the exponential region of growth to obtain the CCDTs, yielding a total of 12 estimations for analysis was utilized. A regression analysis was performed using the (log) of the cell number versus the linear time in days (SigmaPlot, V. 10, Systat Software, Inc., Point Richmond, Calif.). The log slope value and its standard error (SE) were determined, and the SE was converted to the 95% confidence limits using a two-tailed t-table at N−1 degrees of freedom where N is the number of samples. (See Goldstein, A. In: Biostatistics, New York, The MacMillan Co., 1964, p. 140-146).

Q: What does the source list for `O=C(O)Cc1cc(I)c(Oc2cc(I)c(O)c(I)c2)c(I)c1` [Tetrac, tetraiodothyroacetic acid]?
A: Mean inhibition of angiogenesis (%) ([1]; FGF 100 ng + Tetrac or analog 10 μg/plug): 90 ± 13%; Mean inhibition of angiogenesis (%) ([1]; T4 + antagonist, each 10 μg/matrigel plug): 89 ± 11%; inhibition of FGF induced angiogenesis ([1]; Tetrac 10 μg): 85%; inhibition of FGF induced angiogenesis ([1]; Tetrac 30 μg): 91%; BCL2L14 expression ([2]; MDA-MB-231): not a significant stimulatory action; CASP2 expression ([2]; MDA-MB-231): not a significant stimulatory action; CBY1 expression ([2]; MDA-MB-231): significantly increased; MCL1 expression ([2]; MDA-MB-231): did not significantly affect; THBS1 expression ([2]; MDA-MB-231): upregulation; XIAP expression ([2]; MDA-MB-231): also acted on XIAP; EGFR expression ([2]; MDA-MB-231 (FIG. 50)): ineffective; decrease of final saturation density ([3]; 2 μM Tetrac): about 50%; saturation density of control relative to tetrac-treated cells ([3]; 2 μM Tetrac): approximately 2.4 times; cell culture doubling time, Tetrac-treated GL261 cells ([3]; 2 μM Tetrac, exponential growth): 43.8 ± 3.8 h and 43.8 h; onset of exponential growth ([3]; 2 μM Tetrac, control 20 hours): about 40 hours; Mean nuclear area (μm^2) ([3]; Exponential Cells (+Tetrac)): 1180 μm^2; Median Volume (μm^3) ([3]; Exponential Cells (+Tetrac)): 3850 μm^3; Median cell area (μm^2) ([3]; Exponential Cells (+Tetrac)): 2814 μm^2; nuclear/cell area (%) ([3]; Exponential Cells (+Tetrac)): 42%; Mean nuclear area (μm^2) ([3]; Plateau phase Cells (+Tetrac)): 310 μm^2; Median Volume (μm^3) ([3]; Plateau phase Cells (+Tetrac)): 2780 μm^3; Median cell area (μm^2) ([3]; Plateau phase Cells (+Tetrac)): 700 μm^2; nuclear/cell area (%) ([3]; Plateau phase Cells (+Tetrac)): 44%; CFE (%) ([3]; Plateau phase Cells (+Tetrac), with feeder cells): 8.8%; cell size relative to control GL261 cells ([3]; exponential phase): 1.4 times; cell size relative to control GL261 cells ([3]; plateau phase): 1.9 times
